Laboratory results taken from ChEMBL document CHEMBL3885861, “Open TG-GATES”.

Organism: Rattus norvegicus
Experiment: Open TG-GATES - Regimen: Single
Format: toxicity, organism-based, Sprague-Dawley
Set-up: regimen Single, gender Male, age 6 weeks
Details: in vivo, po, 10 mg/kg, route gavage, dose level Low; for APTT / Bas / Eos / Fbg / Hb / Ht / Lym / MCH / MCHC / MCV / Mono / Neu / PT / Plat / RBC / Ret / WBC: tissue Blood; for KIDNEY_L / KIDNEY_R / KIDNEY_TOTAL: tissue Kidney; for LIVER: tissue Liver; for A/G / ALP / ALT / AST / BUN / CRE / Ca / Cl / DBIL / GLC / IP / K / LDH / Na / PL / RALB / TBIL / TC / TG / TP / gamma-GTP: tissue Plasma

CCCc1cc(=O)[nH]c(=S)[nH]1 [PROPYLTHIOURACIL]
TERMINAL_BW (3 h): 181.7 g
APTT (3 h): 15.5 s
Bas (3 h): 0%
Eos (3 h): 0.6%
Fbg (3 h): 202.8 mg/dL
Hb (3 h): 13.1 g/dL
Ht (3 h): 39.5%
Lym (3 h): 78.6%
MCH (3 h): 22.3 pg
MCHC (3 h): 33.3%
MCV (3 h): 66.9 fL
Mono (3 h): 8.6%
Neu (3 h): 12.4%
PT (3 h): 12.9 s
Plat (3 h): 102.8 x10_4/uL
RBC (3 h): 590.2 x10_4/ul
Ret (3 h): 10.1%
WBC (3 h): 92.2 x10_2/uL
KIDNEY_L (3 h): 0.9 g
KIDNEY_R (3 h): 0.9 g
KIDNEY_TOTAL (3 h): 1.7 g
LIVER (3 h): 8.4 g
A/G (3 h): 2
ALP (3 h): 982.6 IU/L
ALT (3 h): 41.6 IU/L
AST (3 h): 72.2 IU/L
BUN (3 h): 12 mg/dL
CRE (3 h): 0.4 mg/dL
Ca (3 h): 11.1 mg/dL
Cl (3 h): 105 meq/L
DBIL (3 h): 0.042 mg/dL
GLC (3 h): 191.4 mg/dL
IP (3 h): 10.3 mg/dL
K (3 h): 4.8 meq/L
LDH (3 h): 92 IU/L
Na (3 h): 138.6 meq/L
PL (3 h): 122.2 mg/dL
RALB (3 h): 3.6 g/dL
TBIL (3 h): 0.3 mg/dL
TC (3 h): 69.2 mg/dL
TG (3 h): 26.6 mg/dL
TP (3 h): 5.5 g/dL
gamma-GTP (3 h): 1.4 IU/L
TERMINAL_BW (6 h): 174.6 g
APTT (6 h): 15.6 s
Bas (6 h): 0%
Eos (6 h): 0.8%
Fbg (6 h): 208.2 mg/dL
Hb (6 h): 13.7 g/dL
Ht (6 h): 41.1%
Lym (6 h): 78.4%
MCH (6 h): 22 pg
MCHC (6 h): 33.3%
MCV (6 h): 66 fL
Mono (6 h): 7.4%
Neu (6 h): 13.4%
PT (6 h): 12.8 s
Plat (6 h): 100.8 x10_4/uL
RBC (6 h): 622.8 x10_4/ul
Ret (6 h): 8.9%
WBC (6 h): 89.5 x10_2/uL
KIDNEY_L (6 h): 0.8 g
KIDNEY_R (6 h): 0.8 g
KIDNEY_TOTAL (6 h): 1.7 g
LIVER (6 h): 7.7 g
A/G (6 h): 2
ALP (6 h): 969.6 IU/L
ALT (6 h): 33 IU/L
AST (6 h): 64.6 IU/L
BUN (6 h): 12.4 mg/dL
CRE (6 h): 0.5 mg/dL
Ca (6 h): 10.8 mg/dL
Cl (6 h): 105.4 meq/L
DBIL (6 h): 0.05 mg/dL
GLC (6 h): 181.8 mg/dL
IP (6 h): 10.6 mg/dL
K (6 h): 5.2 meq/L
LDH (6 h): 68 IU/L
Na (6 h): 138.4 meq/L
PL (6 h): 125.8 mg/dL
RALB (6 h): 3.6 g/dL
TBIL (6 h): 0.4 mg/dL
TC (6 h): 68.4 mg/dL
TG (6 h): 34.6 mg/dL
TP (6 h): 5.4 g/dL
gamma-GTP (6 h): 1.4 IU/L
TERMINAL_BW (9 h): 177.5 g
APTT (9 h): 16 s
Bas (9 h): 0%
Eos (9 h): 1.4%
Fbg (9 h): 214.2 mg/dL
Hb (9 h): 13.1 g/dL
Ht (9 h): 39.3%
Lym (9 h): 67%
MCH (9 h): 22 pg
MCHC (9 h): 33.3%
MCV (9 h): 66 fL
Mono (9 h): 11.8%
Neu (9 h): 19.6%
PT (9 h): 12.9 s
Plat (9 h): 109.3 x10_4/uL
RBC (9 h): 596 x10_4/ul
Ret (9 h): 10.2%
WBC (9 h): 70.1 x10_2/uL
KIDNEY_L (9 h): 0.8 g
KIDNEY_R (9 h): 0.9 g
KIDNEY_TOTAL (9 h): 1.7 g
LIVER (9 h): 7.7 g
A/G (9 h): 2.1
ALP (9 h): 791.6 IU/L
ALT (9 h): 32 IU/L
AST (9 h): 59.2 IU/L
BUN (9 h): 12.8 mg/dL
CRE (9 h): 0.4 mg/dL
Ca (9 h): 10.7 mg/dL
Cl (9 h): 106.4 meq/L
DBIL (9 h): 0.01 mg/dL
GLC (9 h): 192.6 mg/dL
IP (9 h): 10.7 mg/dL
K (9 h): 5.3 meq/L
LDH (9 h): 84.2 IU/L
Na (9 h): 138.2 meq/L
PL (9 h): 135 mg/dL
RALB (9 h): 3.6 g/dL
TBIL (9 h): 0.4 mg/dL
TC (9 h): 73.4 mg/dL
TG (9 h): 38.8 mg/dL
TP (9 h): 5.4 g/dL
gamma-GTP (9 h): 1.4 IU/L
TERMINAL_BW (24 h): 193.7 g
APTT (24 h): 16.3 s
Bas (24 h): 0%
Eos (24 h): 1%
Fbg (24 h): 209.4 mg/dL
Hb (24 h): 13 g/dL
Ht (24 h): 39.1%
Lym (24 h): 77.2%
MCH (24 h): 21.7 pg
MCHC (24 h): 33.1%
MCV (24 h): 65.4 fL
Mono (24 h): 7.2%
Neu (24 h): 14.8%
PT (24 h): 12.3 s
Plat (24 h): 102.3 x10_4/uL
RBC (24 h): 598.4 x10_4/ul
Ret (24 h): 9.7%
WBC (24 h): 90 x10_2/uL
KIDNEY_L (24 h): 0.9 g
KIDNEY_R (24 h): 0.9 g
KIDNEY_TOTAL (24 h): 1.8 g
LIVER (24 h): 9.5 g
A/G (24 h): 2.1
ALP (24 h): 908.8 IU/L
ALT (24 h): 39.8 IU/L
AST (24 h): 65.6 IU/L
BUN (24 h): 18.8 mg/dL
CRE (24 h): 0.5 mg/dL
Ca (24 h): 11 mg/dL
Cl (24 h): 106.6 meq/L
DBIL (24 h): 0.008 mg/dL
GLC (24 h): 182.6 mg/dL
IP (24 h): 7.3 mg/dL
K (24 h): 5.2 meq/L
LDH (24 h): 85.8 IU/L
Na (24 h): 139.4 meq/L
PL (24 h): 166.4 mg/dL
RALB (24 h): 3.8 g/dL
TBIL (24 h): 0.3 mg/dL
TC (24 h): 94.8 mg/dL
TG (24 h): 97.6 mg/dL
TP (24 h): 5.6 g/dL
gamma-GTP (24 h): 2.8 IU/L
